Values after ≈ are worked out from the molar mass of the structure shown. Where two headings read alike, the source gives them in different places.
Key:
Bacillus subtilis = experiment: In vitro antimicrobial screening, tube dilution method; assay type: cell-based; conditions: B. substilis, Gram +ve, nutrient broth, 37 ± 1 °C, 24 h, read-out: Minimum inhibitory concentration
Protocol: (§1) The in vitro antimicrobial screening of the synthesized 1,2,4-triazole derivatives (T1–T20) in μM was determined against Gram-positive Bacillus subtilis, […], Gram-negative Escherichia coli bacterium and fungal strains Candida albicans and Aspergillus niger by tube dilution method using ciprofloxacin, amoxycillin (antibacterial) and fluconazole (antifungal) as reference drugs. DMSO was used to dissolve the reference and sample derivatives (T1–T20). Dilutions were prepared in nutrient broth (I.P.) for bacterial (incubated at 37 ± 1 °C for 24 h) and Sabouraud dextrose broth (I.P.) for fungal species (37 ± 1 °C for 48 h for C. albicans) and (25 ± 1 °C for 7 days for A. niger) (Table 3, Figs. 4 and 5).

Escherichia coli = experiment: as above; assay type: cell-based; conditions: E. coli, Gram −ve, nutrient broth, 37 ± 1 °C, 24 h, read-out: Minimum inhibitory concentration
Protocol: as §1

Pseudomonas aeruginosa = experiment: as above; assay type: cell-based; conditions: P. aeruginosa, Gram −ve, nutrient broth, 37 ± 1 °C, 24 h, read-out: Minimum inhibitory concentration
Protocol: as §1

[1] = test system: Gram-positive (B. subtilis), Gram-negative (P. aeruginosa and E. coli) bacterial strains; experiment: Tube dilution method, MIC of antibacterial standards quoted without strain; assay type: cell-based; conditions: antibacterial standard, strain not given
Aspergillus niger = experiment: In vitro antifungal screening, tube dilution method; assay type: cell-based; conditions: Aspergillus niger, 168 h; A. niger; Sabouraud dextrose broth, 25 ± 1 °C, 7 days; read-out: Minimum inhibitory concentration
Protocol: as §1

Candida albicans = experiment: as above; assay type: cell-based; conditions: Candida albicans; C. albican; Sabouraud dextrose broth, 37 ± 1 °C, 48 h; read-out: Minimum inhibitory concentration
Protocol: as §1

[2] = DPPH free radical scavenging activity; conditions: for IC50: DPPH antioxidant; for % inhibition: DPPH
Protocol: In the DPPH free radical scavenging activity, compounds (T1–T20) were evaluated for their free radical scavenging activity with ascorbic acid as standard compound. The scavenging effect increased with the increasing concentrations of sample compounds. DPPH is relatively stable nitrogen centered free radical that easily accepts an electron or hydrogen radical to become a stable diamagnetic molecule. DPPH radicals react with suitable reducing agents as a result of which the electrons become paired off forming the corresponding hydrazine. The solution therefore loses colour stoichometrically depending on the number of electrons taken up. […] The sample solutions were incubated for 30 min at room temperature in dark place and after then absorbance was recorded against the blank solution at 517 nm. The relative percent of DPPH scavenging activity was calculated according to the following equation: I%=Acontrol-Asample/Acontrol×100,
where Acontrol is the absorbance of the control, Asample is the absorbance of the test compound.

Jack Bean Urease = Jack Bean Urease (Canavalia ensiformis, UniProt P07374); experiment: biochemical
Protocol: Urease inhibitory potential for each synthesisized compound (T1–T20) was evaluated using Jack Bean Urease by Indophenol method (Table 5, Figs. 9, 10, 11). 250 µl of jack bean urease (4U) was mixed with 250 µl of different synthesized test compounds and standard of different concentrations [dissolved in DMSO/H2O mixture (1:1 v/v)]. The mixture was pre-incubated for 1 h at 37 °C in test tubes. 2 ml of 100 mM phosphate buffer (pH 6.8) containing 500 mM urea and 0.002% phenol red as an indicator were added in sample test tubes after pre incubation and again incubated at room temperature. Absorbance of reaction mixture was recorded by ELISA at 570 nm. Ammonium carbonate increased the pH of phosphate buffer from 6.8 to 7.7 which was produced from urea by urease enzyme and the end peak was measured by the colour of phenol red indicator [16].
The percentage inhibition of urease enzyme was calculated by using following formula: I%=Acontrol-Asample/Acontrol×100,
where Acontrol is the absorbance of the control; Asample is the absorbance of the test compound.

[3] = test system: HCT116 (human colon cancer cells); experiment: Anticancer evaluation, SRB assay; assay type: cell-based; conditions: Homo sapiens, HCT-116; HCT116, 72 h, SRB; mean of at least triplicates
Protocol: HCT116 (human colon cancer cells) were seeded at 2500 cells/well (96 well plate), allowed to attach overnight, exposed to the respective compounds for 72 h and subjected to SRB assay (570 nm). Data represent mean IC50 of at least triplicates. The compounds were all dissolved in DMSO as stock of 100 mg/ml. […] The highest concentration of each compound tested (100 μg/ml) contained only 0.1% DMSO.

Sequence of Jack Bean Urease (P07374 whole entry, looked up): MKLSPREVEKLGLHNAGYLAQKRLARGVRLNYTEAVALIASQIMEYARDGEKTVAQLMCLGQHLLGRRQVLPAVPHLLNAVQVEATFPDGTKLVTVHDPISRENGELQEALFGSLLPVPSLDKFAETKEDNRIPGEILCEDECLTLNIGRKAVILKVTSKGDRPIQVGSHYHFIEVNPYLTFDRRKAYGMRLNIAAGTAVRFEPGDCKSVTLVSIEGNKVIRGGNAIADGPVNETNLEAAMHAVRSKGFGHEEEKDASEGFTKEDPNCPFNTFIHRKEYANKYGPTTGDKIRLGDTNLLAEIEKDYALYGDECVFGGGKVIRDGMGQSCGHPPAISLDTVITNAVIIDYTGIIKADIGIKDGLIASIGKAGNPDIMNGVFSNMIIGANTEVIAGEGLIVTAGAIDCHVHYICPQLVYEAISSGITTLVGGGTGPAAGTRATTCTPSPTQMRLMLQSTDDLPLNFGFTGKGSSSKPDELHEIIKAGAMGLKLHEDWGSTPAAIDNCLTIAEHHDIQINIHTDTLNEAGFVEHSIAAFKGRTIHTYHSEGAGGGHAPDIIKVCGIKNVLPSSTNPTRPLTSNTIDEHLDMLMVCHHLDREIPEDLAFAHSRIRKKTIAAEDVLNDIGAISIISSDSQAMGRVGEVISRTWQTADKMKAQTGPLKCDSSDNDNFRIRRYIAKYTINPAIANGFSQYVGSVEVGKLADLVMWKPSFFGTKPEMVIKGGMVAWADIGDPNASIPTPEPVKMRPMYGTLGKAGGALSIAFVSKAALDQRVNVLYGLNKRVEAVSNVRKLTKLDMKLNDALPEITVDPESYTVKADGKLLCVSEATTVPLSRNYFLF

Row | SMILES | MIC (Bacillus subtilis; Bacillus subtilis) [µM] | MIC (Escherichia coli; Escherichia coli) [µM] | MIC (Pseudomonas aeruginosa; Pseudomonas aeruginosa) [µM] | MIC (Aspergillus niger) [µM] | MIC (Candida albicans) [µM] | IC50 [2] [µg/mL] | % inhibition ([2]; 25 µg/ml) [%] | % inhibition ([2]; 50 µg/ml) [%] | % inhibition ([2]; 75 µg/ml) [%] | % inhibition ([2]; 100 µg/ml) [%] | IC50 (Jack Bean Urease) [µM] | inhibition at 25 µg/mL (Jack Bean Urease) [%] | inhibition at 50 µg/mL (Jack Bean Urease) [%] | inhibition at 75 µg/mL (Jack Bean Urease) [%] | inhibition at 100 µg/mL (Jack Bean Urease) [%] | IC50 [3] [µM] | melting point [°C] | other results
1 | CC1(C)S[C@@H]2[C@H](NC(=O)[C@H](N)c3ccc(O)cc3)C(=O)N2[C@H]1C(=O)O [Amoxicillin, reference compound] | 17.1 (≈ 6.25 µg/mL) | 17.1 (≈ 6.25 µg/mL) | 17.1 (≈ 6.25 µg/mL) | – | – | – | – | – | – | – | – | – | – | – | – | – | – | MIC [1]: 17.1 µM
2 | O=C(O)c1cn(C2CC2)c2cc(N3CCNCC3)c(F)cc2c1=O [Ciprofloxacin, reference compound] | 18 (≈ 5.96 µg/mL) | 37.7 (≈ 12.5 µg/mL) | 18 (≈ 5.96 µg/mL) | – | – | – | – | – | – | – | – | – | – | – | – | – | – | MIC (Bacillus subtilis): 18.0 µM (≈ 5.96 µg/mL); MIC (Pseudomonas aeruginosa): 18.0 µM (≈ 5.96 µg/mL); MIC [1]: 18.1 µM
3 | CCCCCCCCCCCCCCCc1nnc(S)n1N=Cc1ccc(O)cc1 [Compound T8] | 116 (≈ 50 µg/mL) | 58 (≈ 25 µg/mL) | 58 (≈ 25 µg/mL) | 232 (≈ 100 µg/mL) | 116 (≈ 50 µg/mL) | 36.12 (≈ 83.9 µM) | 43.91 | 58.67 | 67.54 | 82.57 | 131 | 22.4 | 39.6 | 68.6 | 92.7 | > 232 | 192 to 195 | MIC (Escherichia coli): 58.0 µM (≈ 25 µg/mL); MIC (Pseudomonas aeruginosa): 58.0 µM (≈ 25 µg/mL)
4 | CCCCCCCCCCCCCCCc1nnc(S)n1N=Cc1ccc(N(C)C)cc1 [Compound T9] | 54.6 (≈ 25 µg/mL) | 54.6 (≈ 25 µg/mL) | 27.3 (≈ 12.5 µg/mL) | 218 (≈ 100 µg/mL) | 109 (≈ 50 µg/mL) | 35.42 (≈ 77.4 µM) | 40.56 | 60.67 | 83.61 | 92.16 | – | 33.5 | 53.7 | 70.5 | 92.7 | > 218 | 198 to 201 | –
5 | CCCCCCCCCCCCCCCc1nnc(S)n1N=Cc1cccc(Cl)c1 [Compound T10] | 55.6 (≈ 25 µg/mL) | 111 (≈ 50 µg/mL) | 55.6 (≈ 25 µg/mL) | 55.6 (≈ 25 µg/mL) | 223 (≈ 100 µg/mL) | 43.57 (≈ 97 µM) | 45.56 | 51.56 | 57.57 | 62.67 | 116 | 27.9 | 46.9 | 70.9 | 89.8 | 174 | 205 to 208 | –
6 | CCCCCCCCCCCCCCCc1nnc(S)n1N=Cc1ccc(Cl)cc1 [Compound T11] | 55.6 (≈ 25 µg/mL) | 111 (≈ 50 µg/mL) | 111 (≈ 50 µg/mL) | 111 (≈ 50 µg/mL) | 27.8 (≈ 12.5 µg/mL) | 45.36 (≈ 101 µM) | 35.78 | 52.89 | 70.89 | 89.9 | 122 | 25 | 42.5 | 68.9 | 92.7 | > 223 | 202 to 205 | –
7 | CCCCCCCCCCCCCCCc1nnc(S)n1N=Cc1ccc(Cl)cc1Cl [Compound T12] | 103 (≈ 50 µg/mL) | 103 (≈ 50 µg/mL) | 51.7 (≈ 25 µg/mL) | 103 (≈ 50 µg/mL) | 207 (≈ 100 µg/mL) | 39.56 (≈ 81.8 µM) | 44.45 | 51.45 | 68.56 | 70.61 | 120 | 43.6 | 46.6 | 52.6 | 61.6 | > 207 | 211 to 214 | –
8 | CCCCCCCCCCCCCCCc1nnc(S)n1N=Cc1cccc(Br)c1 [Compound T13] | 101 (≈ 50 µg/mL) | 203 (≈ 100 µg/mL) | 203 (≈ 100 µg/mL) | 203 (≈ 100 µg/mL) | 101 (≈ 50 µg/mL) | 36.40 (≈ 73.8 µM) | 43.46 | 57.67 | 73.76 | 89.56 | 101 | 26.6 | 48.8 | 74 | 98.9 | > 203 | 197 to 200 | –
9 | CCCCCCCCCCCCCCCc1nnc(S)n1N=Cc1ccc(Br)cc1 [Compound T14] | 50.6 (≈ 25 µg/mL) | 101 (≈ 50 µg/mL) | 101 (≈ 50 µg/mL) | 101 (≈ 50 µg/mL) | 203 (≈ 100 µg/mL) | 37.52 (≈ 76 µM) | 37.56 | 60.68 | 85.79 | 95.61 | 136 | 41.7 | 46.2 | 50.5 | 57.8 | 128 | 193 to 196 | –
10 | CCCCCCCCCCCCCCCc1nnc(S)n1N=Cc1ccccc1[N+](=O)[O-] [Compound T15] | 54.3 (≈ 25 µg/mL) | 218 (≈ 100 µg/mL) | 109 (≈ 50 µg/mL) | 54.3 (≈ 25 µg/mL) | 218 (≈ 100 µg/mL) | 47.99 (≈ 104 µM) | 38.56 | 50.64 | 62.16 | 80.56 | 133 | 29 | 37.1 | 61.8 | 73.1 | > 218 | 195 to 198 | –
11 | CCCCCCCCCCCCCCCc1nnc(S)n1N=Cc1cccc([N+](=O)[O-])c1 [Compound T16] | 109 (≈ 50 µg/mL) | 218 (≈ 100 µg/mL) | 109 (≈ 50 µg/mL) | 218 (≈ 100 µg/mL) | 218 (≈ 100 µg/mL) | 41.30 (≈ 89.8 µM) | 43.65 | 51.45 | 67.26 | 81.76 | 115 | 45.8 | 49.1 | 53.9 | 59.1 | 169 | 199 to 202 | –
12 | CCCCCCCCCCCCCCCc1nnc(S)n1N=Cc1ccc([N+](=O)[O-])cc1 [Compound T17] | 54.3 (≈ 25 µg/mL) | 218 (≈ 100 µg/mL) | 218 (≈ 100 µg/mL) | 27.1 (≈ 12.5 µg/mL) | 109 (≈ 50 µg/mL) | – | 48.75 | 62.57 | 78.16 | 84.61 | 125 | 37.9 | 42.4 | 57.6 | 71.4 | > 218 | 206 to 209 | –

— publication PMC7818921, “Synthesis and biological evaluation of heterocyclic 1,2,4-triazole scaffolds as promising pharmacological agents” (BMC Chemistry, 2021)
